# According to ChEMBL document CHEMBL1145733, “N-isonicotinoyl-(L)-4-aminophenylalanine derivatives as tight binding VLA-4 antagonists” (Bioorg Med Chem Lett, 2003):
# Key:
# Integrin alpha-4/beta-1 [1] = target: T1, Integrin alpha-4/beta-1 (Homo sapiens, UniProt P05556+P13612); assay: Inhibition of VLA-4 binding in Jurkat cells in the presence of Mg2+; type: cell-based
# Integrin alpha-4/beta-1 [2] = target: T1, Integrin alpha-4/beta-1; assay: Dissociation from Very late antigen 4 (VLA-4); type: protein-complex assay
# Integrin alpha-4/beta-1 [3] = target: T1, Integrin alpha-4/beta-1; assay: Inhibition of [125I]VCAM-Ig binding to VLA-4 of Jurkat cells in the presence of [Ca2+]; type: cell-based
# [4] = Plasma clearance was determined in Sprague-Dawley rats at a dose of 1 mg/kg by iv administration; type: ADME, organism-based; design: dose 1 mg/kg, route intravenous; conditions: rat, read-out: Clp
# [5] = Oral bioavailability in Beagle dog at a dose of 2 mg/kg by po administration; type: ADME, organism-based, Canis lupus familiaris; conditions: in vivo
# [6] = Plasma clearance was determined in Beagle dog at a dose of 1 mg/kg by iv administration; type: ADME, organism-based, Canis lupus familiaris; design: dose 1 mg/kg, route intravenous; conditions: read-out: Clp
# [7] = Half life period was determined in rhesus monkey at a dose of 1 mg/kg by iv administration; type: ADME, organism-based; design: dose 1 mg/kg, route intravenous; conditions: cercopithecidae, in vivo
# Canis familiaris = assay: Unbound plasma was determined in Beagle dog at a dose of 1 mg/kg by iv administration; type: ADME, organism-based, Canis lupus familiaris; design: dose 1 mg/kg, route intravenous; conditions: in vivo
# [8] = Unbound plasma was determined in rhesus monkey at a dose of 1 mg/kg by iv administration; type: ADME, organism-based; design: dose 1 mg/kg, route intravenous; conditions: cercopithecidae, in vivo
# [9] = Half life period was determined in Beagle dog at a dose of 1 mg/kg by iv administration; type: ADME, organism-based, Canis lupus familiaris; design: dose 1 mg/kg, route intravenous; conditions: in vivo
# Integrin alpha-4/beta-1 [10] = target: T1, Integrin alpha-4/beta-1; assay: Inhibition of [125I]VCAM-Ig binding to VLA-4 of Jurkat cells in the presence of Mn2+; type: cell-based
# Rattus norvegicus = assay: Unbound plasma was determined in Sprague-Dawley rats at a dose of 1 mg/kg by iv administration; type: ADME, organism-based; design: dose 1 mg/kg, route intravenous; conditions: in vivo
# [11] = Half life period was determined in Sprague-Dawley rats at a dose of 1 mg/kg by iv administration; type: ADME, organism-based; design: dose 1 mg/kg, route intravenous; conditions: rat, in vivo
# [12] = Oral bioavailability in rhesus monkey at a dose of 2 mg/kg by po administration; type: ADME, organism-based, Macaca mulatta; conditions: in vivo
# [13] = Plasma clearance was determined in rhesus monkey at a dose of 1 mg/kg by iv administration; type: ADME, organism-based; design: dose 1 mg/kg, route intravenous; conditions: cercopithecidae, read-out: Clp
# [14] = Oral bioavailability in Sprague-Dawley rats at a dose of 2 mg/kg by po administration; type: ADME, organism-based; conditions: rat, in vivo
# T1 sequence (P05556 whole entry): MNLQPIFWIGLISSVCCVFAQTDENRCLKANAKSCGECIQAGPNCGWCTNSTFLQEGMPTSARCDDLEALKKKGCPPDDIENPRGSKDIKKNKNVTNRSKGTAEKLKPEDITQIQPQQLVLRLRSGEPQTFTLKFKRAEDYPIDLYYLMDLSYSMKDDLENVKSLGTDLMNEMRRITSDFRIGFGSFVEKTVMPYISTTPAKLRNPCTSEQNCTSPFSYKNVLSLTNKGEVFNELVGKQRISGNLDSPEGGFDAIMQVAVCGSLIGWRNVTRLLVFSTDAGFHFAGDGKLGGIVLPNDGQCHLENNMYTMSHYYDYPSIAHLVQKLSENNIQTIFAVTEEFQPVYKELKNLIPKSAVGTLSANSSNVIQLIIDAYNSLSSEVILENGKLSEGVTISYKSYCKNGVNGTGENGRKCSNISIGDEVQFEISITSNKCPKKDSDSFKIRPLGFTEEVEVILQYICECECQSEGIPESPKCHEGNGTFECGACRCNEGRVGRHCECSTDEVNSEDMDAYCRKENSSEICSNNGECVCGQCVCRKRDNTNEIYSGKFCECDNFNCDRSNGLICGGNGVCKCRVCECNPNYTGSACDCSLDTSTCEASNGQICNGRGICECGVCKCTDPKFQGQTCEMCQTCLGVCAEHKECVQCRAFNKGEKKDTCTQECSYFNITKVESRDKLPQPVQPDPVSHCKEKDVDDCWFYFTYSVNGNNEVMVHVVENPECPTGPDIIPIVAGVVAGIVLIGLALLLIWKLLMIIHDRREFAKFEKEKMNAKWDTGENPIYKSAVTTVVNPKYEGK
# T1 sequence (P13612 whole entry): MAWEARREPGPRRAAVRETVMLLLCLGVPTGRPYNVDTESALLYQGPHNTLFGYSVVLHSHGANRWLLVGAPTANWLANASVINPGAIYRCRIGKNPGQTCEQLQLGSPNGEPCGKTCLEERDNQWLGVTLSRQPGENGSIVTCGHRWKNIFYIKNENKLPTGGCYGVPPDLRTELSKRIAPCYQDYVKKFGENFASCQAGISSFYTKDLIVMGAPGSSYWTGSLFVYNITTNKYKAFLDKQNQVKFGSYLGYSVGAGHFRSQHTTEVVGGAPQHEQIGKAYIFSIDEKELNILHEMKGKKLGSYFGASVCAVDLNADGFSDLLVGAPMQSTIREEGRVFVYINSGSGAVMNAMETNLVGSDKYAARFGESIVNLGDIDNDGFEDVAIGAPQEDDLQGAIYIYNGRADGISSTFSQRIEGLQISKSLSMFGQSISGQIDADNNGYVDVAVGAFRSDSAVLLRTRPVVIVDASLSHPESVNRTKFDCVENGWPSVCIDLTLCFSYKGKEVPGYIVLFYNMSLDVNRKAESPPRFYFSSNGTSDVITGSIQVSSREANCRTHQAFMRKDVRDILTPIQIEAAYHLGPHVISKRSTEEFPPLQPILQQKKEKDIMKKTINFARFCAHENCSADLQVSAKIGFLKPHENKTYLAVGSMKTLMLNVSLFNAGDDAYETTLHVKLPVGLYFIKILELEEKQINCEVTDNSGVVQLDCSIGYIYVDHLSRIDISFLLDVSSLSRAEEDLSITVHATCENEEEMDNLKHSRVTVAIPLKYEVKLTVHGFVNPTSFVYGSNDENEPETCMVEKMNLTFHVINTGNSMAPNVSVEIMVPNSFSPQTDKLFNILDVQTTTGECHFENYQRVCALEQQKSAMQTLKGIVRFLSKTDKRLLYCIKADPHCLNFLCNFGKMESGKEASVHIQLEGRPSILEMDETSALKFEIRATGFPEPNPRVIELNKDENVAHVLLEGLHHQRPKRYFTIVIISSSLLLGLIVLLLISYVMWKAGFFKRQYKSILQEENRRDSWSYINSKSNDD
IC50 (Integrin alpha-4/beta-1 [1]) [nM],Bound (Integrin alpha-4/beta-1 [2]) [%],IC50 (Integrin alpha-4/beta-1 [3]) [nM],IC50 (Integrin alpha-4/beta-1 [10]) [nM],SMILES,further results
0.09,1,0.09,,COc1cccc(OC)c1-c1ccc(C[C@H](NC(=O)[C@]2(C)CCCN2S(=O)(=O)c2cc(Cl)cc(Cl)c2)C(=O)O)cc1,
0.11,57,0.11,0.11,C[C@@]1(C(=O)N[C@@H](Cc2ccc(NC(=O)c3c(Cl)ccnc3Cl)cc2)C(=O)O)CCCN1S(=O)(=O)c1cc(Cl)cc(Cl)c1,clearance [4]: 1.9 mL/min/kg; bioavailability [5]: 0.4%; clearance [6]: 32 mL/min/kg; half-life [7]: 2.3 h; Unbound plasma (Canis familiaris): 2.2%; Unbound plasma [8]: 0.15%; half-life [9]: 0.73 h; Unbound plasma (Rattus norvegicus): 0.2%; half-life [11]: 1.7 h; bioavailability [12]: 4%; clearance [13]: 7.5 mL/min/kg; bioavailability [14]: 1.6%
0.25,12,0.25,0.27,C[C@@]1(C(=O)N[C@@H](Cc2ccc(NC(=O)c3cccnc3)cc2)C(=O)O)CCCN1S(=O)(=O)c1cc(Cl)cc(Cl)c1,
0.21,26,0.21,0.14,C[C@@]1(C(=O)N[C@@H](Cc2ccc(NC(=O)c3cnccc3Cl)cc2)C(=O)O)CCCN1S(=O)(=O)c1cc(Cl)cc(Cl)c1,
0.07,62,0.07,0.1,O=C(Nc1ccc(C[C@H](NC(=O)[C@@H]2CCCN2S(=O)(=O)c2cc(Cl)cc(Cl)c2)C(=O)O)cc1)c1c(Cl)cncc1Cl,
0.08,40,0.08,0.13,COc1ccnc(Cl)c1C(=O)Nc1ccc(C[C@H](NC(=O)[C@]2(C)CCCN2S(=O)(=O)c2cc(Cl)cc(Cl)c2)C(=O)O)cc1,
0.31,0,0.31,0.16,C[n+]1ccc(C(=O)Nc2ccc(C[C@H](NC(=O)[C@]3(C)CCCN3S(=O)(=O)c3cc(Cl)cc(Cl)c3)C(=O)O)cc2)c(Cl)c1,
0.1,37,0.1,0.09,O=C(Nc1ccc(C[C@H](NC(=O)[C@@H]2CCCN2S(=O)(=O)c2cccc(Cl)c2)C(=O)O)cc1)c1c(Cl)cncc1Cl,
0.1,61,0.1,0.19,C[n+]1cc(Cl)c(C(=O)Nc2ccc(C[C@H](NC(=O)[C@]3(C)CCCN3S(=O)(=O)c3cc(Cl)cc(Cl)c3)C(=O)O)cc2)c(Cl)c1,
0.09,43,0.09,0.1,COc1cc(CN2CCCC2)cc(OC)c1-c1ccc(C[C@H](NC(=O)[C@]2(C)CCCN2S(=O)(=O)c2cc(Cl)cc(Cl)c2)C(=O)O)cc1,
1.56,0,1.56,0.36,CSc1cnccc1C(=O)Nc1ccc(C[C@H](NC(=O)[C@]2(C)CCCN2S(=O)(=O)c2cc(Cl)cc(Cl)c2)C(=O)O)cc1,
0.13,19,0.13,0.15,O=C(Nc1ccc(C[C@H](NC(=O)[C@@H]2CCCN2S(=O)(=O)c2ccccc2)C(=O)O)cc1)c1c(Cl)cncc1Cl,
0.15,15,0.15,0.21,C[C@@]1(C(=O)N[C@@H](Cc2ccc(NC(=O)c3c(Cl)cccc3Cl)cc2)C(=O)O)CCCN1S(=O)(=O)c1cc(Cl)cc(Cl)c1,
0.08,61,0.08,0.1,C[C@@]1(C(=O)N[C@@H](Cc2ccc(NC(=O)C3=C(Cl)CC(=O)N=C3Cl)cc2)C(=O)O)CCCN1S(=O)(=O)c1cc(Cl)cc(Cl)c1,
